Columns and labels:
[1] = target: 72 kDa type IV collagenase (Homo sapiens, UniProt P08253); experiment: Inhibition of MMP2
Interstitial collagenase = target: T1, Interstitial collagenase (Homo sapiens, UniProt P03956); experiment: Inhibition of MMP1
T1 sequence (P03956 whole entry): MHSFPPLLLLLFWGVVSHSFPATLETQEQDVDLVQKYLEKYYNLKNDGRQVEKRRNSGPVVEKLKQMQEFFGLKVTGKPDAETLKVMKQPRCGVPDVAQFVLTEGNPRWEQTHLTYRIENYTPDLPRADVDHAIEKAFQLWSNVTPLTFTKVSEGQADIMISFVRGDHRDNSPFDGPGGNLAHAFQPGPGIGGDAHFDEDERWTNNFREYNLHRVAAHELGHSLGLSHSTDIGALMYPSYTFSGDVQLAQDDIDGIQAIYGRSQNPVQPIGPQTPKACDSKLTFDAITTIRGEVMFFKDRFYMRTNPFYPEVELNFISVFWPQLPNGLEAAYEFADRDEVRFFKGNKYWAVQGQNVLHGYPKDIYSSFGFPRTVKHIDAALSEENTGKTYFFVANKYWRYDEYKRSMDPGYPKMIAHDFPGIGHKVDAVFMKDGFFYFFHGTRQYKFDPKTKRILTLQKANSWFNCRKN

Stromelysin-1 = Stromelysin-1 (Homo sapiens, UniProt P08254); experiment: Inhibition of MMP3
[2] = target: Matrix metalloproteinase-9 (Homo sapiens, UniProt P14780); experiment: Inhibition of MMP9
Collagenase 3 = Collagenase 3 (Homo sapiens, UniProt P45452)
[3] = target: T2, Disintegrin and metalloproteinase domain-containing protein 17 (Homo sapiens, UniProt P78536); experiment: Inhibition of TACE
[4] = target: Matrix metalloproteinase-14 (Homo sapiens, UniProt P50281); experiment: Inhibition of MMP14
[5] = target: T2, Disintegrin and metalloproteinase domain-containing protein 17
Description: Inhibition of TACE in human whole blood assay

Chain of 72 kDa type IV collagenase (P08253 whole entry): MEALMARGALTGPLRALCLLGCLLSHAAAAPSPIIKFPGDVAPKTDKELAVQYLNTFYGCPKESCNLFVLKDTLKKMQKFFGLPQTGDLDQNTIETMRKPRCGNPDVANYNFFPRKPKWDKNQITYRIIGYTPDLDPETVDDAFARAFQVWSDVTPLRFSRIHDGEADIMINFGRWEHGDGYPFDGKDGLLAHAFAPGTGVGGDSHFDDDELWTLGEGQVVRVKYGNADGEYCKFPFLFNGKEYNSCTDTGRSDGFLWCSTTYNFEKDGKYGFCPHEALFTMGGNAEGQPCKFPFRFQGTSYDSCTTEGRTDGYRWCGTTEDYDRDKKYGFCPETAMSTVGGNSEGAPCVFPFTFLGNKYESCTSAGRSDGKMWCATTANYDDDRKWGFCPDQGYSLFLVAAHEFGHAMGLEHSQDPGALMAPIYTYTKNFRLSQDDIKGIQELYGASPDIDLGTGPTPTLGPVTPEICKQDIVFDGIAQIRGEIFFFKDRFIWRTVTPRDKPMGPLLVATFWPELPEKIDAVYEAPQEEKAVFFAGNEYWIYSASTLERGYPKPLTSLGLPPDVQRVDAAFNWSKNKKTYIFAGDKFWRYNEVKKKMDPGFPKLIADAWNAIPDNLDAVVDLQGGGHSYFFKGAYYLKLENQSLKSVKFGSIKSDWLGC
T2 sequence (P78536 whole entry, the tested form may be a part): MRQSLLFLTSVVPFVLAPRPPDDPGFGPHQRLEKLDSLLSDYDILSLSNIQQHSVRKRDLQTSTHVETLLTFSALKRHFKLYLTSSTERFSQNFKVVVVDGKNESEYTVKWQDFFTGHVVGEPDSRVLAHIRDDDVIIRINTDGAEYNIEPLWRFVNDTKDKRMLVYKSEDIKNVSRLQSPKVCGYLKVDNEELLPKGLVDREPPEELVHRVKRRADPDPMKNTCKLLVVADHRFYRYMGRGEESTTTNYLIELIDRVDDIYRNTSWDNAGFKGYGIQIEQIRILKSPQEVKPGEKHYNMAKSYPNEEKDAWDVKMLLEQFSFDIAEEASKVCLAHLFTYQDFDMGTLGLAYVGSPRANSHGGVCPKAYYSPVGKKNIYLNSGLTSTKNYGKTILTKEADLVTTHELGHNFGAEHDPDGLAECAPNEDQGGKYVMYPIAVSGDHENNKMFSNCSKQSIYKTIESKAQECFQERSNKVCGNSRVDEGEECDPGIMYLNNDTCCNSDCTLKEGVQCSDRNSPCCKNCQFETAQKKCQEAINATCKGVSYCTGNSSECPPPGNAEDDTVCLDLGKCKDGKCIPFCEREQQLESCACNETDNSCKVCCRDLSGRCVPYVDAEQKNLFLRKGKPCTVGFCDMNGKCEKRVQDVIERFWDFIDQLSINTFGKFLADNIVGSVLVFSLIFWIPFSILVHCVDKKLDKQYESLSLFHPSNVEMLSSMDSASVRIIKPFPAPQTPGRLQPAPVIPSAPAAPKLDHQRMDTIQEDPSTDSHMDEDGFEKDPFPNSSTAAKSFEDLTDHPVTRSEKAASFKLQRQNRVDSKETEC
Chain of Matrix metalloproteinase-9 (P14780 whole entry): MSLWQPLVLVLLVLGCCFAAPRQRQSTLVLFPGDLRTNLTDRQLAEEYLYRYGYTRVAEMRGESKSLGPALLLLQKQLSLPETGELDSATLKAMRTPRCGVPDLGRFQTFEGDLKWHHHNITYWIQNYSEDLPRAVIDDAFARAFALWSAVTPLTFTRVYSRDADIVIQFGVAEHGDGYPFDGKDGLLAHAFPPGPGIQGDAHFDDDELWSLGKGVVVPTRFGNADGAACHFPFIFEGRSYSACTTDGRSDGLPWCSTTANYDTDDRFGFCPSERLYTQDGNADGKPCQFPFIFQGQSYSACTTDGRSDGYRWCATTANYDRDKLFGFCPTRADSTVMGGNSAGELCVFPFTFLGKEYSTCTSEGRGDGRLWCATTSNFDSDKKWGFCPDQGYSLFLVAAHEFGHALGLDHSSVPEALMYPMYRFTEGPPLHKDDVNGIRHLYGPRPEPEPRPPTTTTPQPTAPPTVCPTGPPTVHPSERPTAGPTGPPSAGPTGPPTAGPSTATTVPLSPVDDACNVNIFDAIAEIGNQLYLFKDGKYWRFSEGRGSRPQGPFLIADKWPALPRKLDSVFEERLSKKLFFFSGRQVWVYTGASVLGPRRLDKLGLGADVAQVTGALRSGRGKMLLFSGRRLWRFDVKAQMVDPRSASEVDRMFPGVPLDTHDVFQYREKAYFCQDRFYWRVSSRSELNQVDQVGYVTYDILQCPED
Chain of Stromelysin-1 (P08254 whole entry): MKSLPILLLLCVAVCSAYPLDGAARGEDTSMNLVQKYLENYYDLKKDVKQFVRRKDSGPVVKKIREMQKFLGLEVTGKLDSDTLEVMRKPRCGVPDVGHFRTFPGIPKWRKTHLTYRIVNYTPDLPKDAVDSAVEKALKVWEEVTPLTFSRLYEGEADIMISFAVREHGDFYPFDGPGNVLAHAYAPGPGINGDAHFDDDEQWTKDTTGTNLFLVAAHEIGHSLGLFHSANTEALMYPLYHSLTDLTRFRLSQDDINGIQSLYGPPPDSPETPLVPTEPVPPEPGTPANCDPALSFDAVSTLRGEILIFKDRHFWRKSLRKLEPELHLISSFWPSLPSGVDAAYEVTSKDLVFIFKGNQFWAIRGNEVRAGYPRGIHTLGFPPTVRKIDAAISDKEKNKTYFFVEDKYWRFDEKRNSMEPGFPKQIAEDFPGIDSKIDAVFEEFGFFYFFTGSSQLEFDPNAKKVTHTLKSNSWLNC

SMILES | IC50 [1] [nM] | IC50 (Interstitial collagenase) [nM] | IC50 (Stromelysin-1) [nM] | IC50 [2] [nM] | IC50 (Collagenase 3) [nM] | IC50 [3] [nM] | IC50 [4] [nM] | IC50 [5] [nM]
Cc1cc(COc2ccc([C@]3(C)CCN([C@H](C)C(=O)NO)C3=O)cc2)c2ccccc2n1 | 2050 | 30000 | 141 | 10300 | 1420 | – | – | –
CC#CCOc1ccc(S(=O)(=O)CC2(C(=O)NO)CCN(S(=O)(=O)N(C)C)CC2)cc1 | 61.3 | – | – | – | 229 | 1.8 | – | –
CC#CCOc1ccc(S(=O)(=O)CC2(C(=O)NO)CCN(S(=O)(=O)N3CCOCC3)CC2)cc1 | 51 | – | – | – | 195 | 1 | – | –
CC#CCOc1ccc(S(=O)(=O)CC2(C(=O)NO)CCN(S(=O)(=O)N3CCCCC3)CC2)cc1 | 51 | – | – | – | 144 | 1.2 | – | –
CC#CCOc1ccc(S(=O)(=O)CC2(C(=O)NO)CCN(S(=O)(=O)N3CCN(C(C)=O)CC3)CC2)cc1 | 20 | – | – | – | 104 | 1.5 | – | –
CC#CCOc1ccc(S(=O)(=O)CC2(C(=O)NO)CCN(S(=O)(=O)N3CCC[C@H]3COC)CC2)cc1 | 58 | – | – | – | 190 | 1.5 | – | –
CC#CCOc1ccc(S(=O)(=O)CC2(C(=O)NO)CCN(S(=O)(=O)N3CCC[C@@H]3CO)CC2)cc1 | 172 | – | – | – | 354 | 1.4 | – | –
CC#CCOc1ccc(S(=O)(=O)CC2(C(=O)NO)CCN(Cc3c(Cl)cncc3Cl)CC2)cc1 | 555 | 2680 | – | 920 | 259 | – | 14800 | –
CC#CCOc1ccc(S(=O)(=O)CC2(C(=O)NO)CCN(S(=O)(=O)C(C)(C)C)CC2)cc1 | 73 | – | – | – | 238 | < 1 | – | –
CC#CCOc1ccc(S(=O)(=O)CC2(C(=O)NO)CCN(S(=O)(=O)CC3CCCCC3)CC2)cc1 | 11 | – | – | – | 72 | < 1 | – | –
CC#CCOc1ccc(S(=O)(=O)CC2(C(=O)NO)CCN(S(=O)(=O)CCN3CCOCC3)CC2)cc1 | 37 | – | – | – | 43 | 2.2 | – | –
CC#CCOc1ccc(S(=O)(=O)CC2(C(=O)NO)CCN(S(=O)(=O)C(C)CN3CCOCC3)CC2)cc1 (stereo unspecified) | 37 | – | – | – | 130 | 1.4 | – | –
CC#CCOc1ccc(S(=O)(=O)CC2(C(=O)NO)CCN(S(=O)(=O)C3CCCC3)CC2)cc1 | 54 | – | – | – | 155 | 1.3 | – | –
CC#CCOc1ccc(S(=O)(=O)CC2(C(=O)NO)CCN(S(=O)(=O)C3CCCCC3)CC2)cc1 | 4 | – | – | – | 24.4 | 2.8 | – | –
CC#CCOc1ccc(S(=O)(=O)CC2(C(=O)NO)CCN(c3ccccn3)CC2)cc1 | 62.6 | – | – | – | 205 | 1.33 | – | –
CC#CCOc1ccc(S(=O)(=O)CC2(C(=O)NO)CCN(c3ccncc3)CC2)cc1 | 2060 | – | – | – | 2040 | 5.6 | – | –

SMILES | IC50 [1] [nM] | IC50 (Interstitial collagenase) [nM] | IC50 (Stromelysin-1) [nM] | IC50 [2] [nM] | IC50 (Collagenase 3) [nM] | IC50 [3] [nM] | IC50 [4] [nM] | IC50 [5] [nM]
CC#CCOc1ccc(S(=O)(=O)CC2(C(=O)NO)CCN(c3nc4ccccc4n3C)CC2)cc1 | 176 | – | – | – | 166 | < 1 | – | –
CC#CCOc1ccc(S(=O)(=O)CC2(C(=O)NO)CCN(S(=O)(=O)c3c(C)noc3C)CC2)cc1 | 664 | – | – | – | 2280 | – | 24000 | –
CC#CCOc1ccc(S(=O)(=O)CC2(C(=O)NO)CCN(S(=O)(=O)c3cn(C)c(C)n3)CC2)cc1 | 19 | – | – | – | 147 | 3 | – | –
CC#CCOc1ccc(S(=O)(=O)CC2(C(=O)NO)CCN(S(=O)(=O)c3ccc(Cl)s3)CC2)cc1 | 33 | – | – | – | – | 7 | – | –
CC#CCOc1ccc(S(=O)(=O)CC2(C(=O)NO)CCN(S(=O)(=O)c3cc(Cl)sc3Cl)CC2)cc1 | 22 | – | – | – | 23 | < 1 | – | –
CC#CCOc1ccc(S(=O)(=O)CC2(C(=O)NO)CCN(C(=O)c3ccncc3)CC2)cc1 | – | – | – | – | 21.5 | 2.6 | 583 | –
CC#CCOc1ccc(S(=O)(=O)N2CCSC(C)(C)C2C(=O)NO)cc1 (stereo unspecified) | – | 201 | – | – | – | 9 | – | –
CC#CCOc1ccc(S(=O)(=O)CC2(C(=O)NO)CCN(S(=O)(=O)c3nc(C)sc3C)CC2)cc1 | 32 | – | – | – | 38 | < 1 | – | –
CC#CCOc1ccc(S(=O)(=O)CC2(C(=O)NO)CCN(S(=O)(=O)N3CCCC3)CC2)cc1 | 31 | – | – | – | 117 | 1 | – | –
CC#CCOc1ccc(S(=O)(=O)CC2(C(=O)NO)CCN(C(=O)c3c(Cl)cncc3Cl)CC2)cc1 | 183 | – | – | – | 449 | 1.7 | – | 1300
CC#CCOc1ccc(S(=O)(=O)CC2(C(=O)NO)CCN(S(=O)(=O)Cc3ccncc3)CC2)cc1 | 82 | – | – | – | 295 | 2 | – | –
CC#CCOc1ccc(S(=O)(=O)CC2(C(=O)NO)CCN(S(=O)(=O)C(CC)CC)CC2)cc1 | 58 | – | – | – | 136 | 1.2 | – | –
CC#CCOc1ccc(S(=O)(=O)CC2(C(=O)NO)CCN(S(=O)(=O)C3CC3)CC2)cc1 | 161 | – | – | – | 1160 | 1.6 | – | –
CC#CCOc1ccc(S(=O)(=O)CC2(C(=O)NO)CCN(c3nc4ccccc4o3)CC2)cc1 | 40 | – | – | – | 56 | 1.1 | – | –
CC#CCOc1ccc(S(=O)(=O)CC2(C(=O)NO)CCN(S(=O)(=O)c3c(C)nn(C)c3C)CC2)cc1 | 99.5 | – | – | – | 385 | < 1 | – | –
Cc1cc(COc2ccc(S(=O)(=O)CC(CC3CCN(C(C)(C)C)CC3)N(O)C=O)cc2)c2ccccc2n1 (stereo unspecified) | 5000 | – | 1500 | 90000 | 4000 | 12 | – | –

Reference: ChEMBL document CHEMBL1146270, “Identification of potent and selective TACE inhibitors via the S1 pocket” (Bioorg Med Chem Lett, 2007)
